Tests used:
[1] = target: full-length hepatitis C NS3 protease enzyme (HCV NS3/4A protease complexes) (Hepatitis C virus genotype 1a, UniProt P27958); experiment: Inhibition assay (enzymatic assay) of HCV NS3/4A protease; format: biochemical; conditions: enzyme 1 nM, 25 μM NS4A cofactor, 0.5 μM depsipeptide substrate, 30° C., competitive model
Experimental: The aim of this in vitro assay is to measure the inhibition of HCV NS3/4A protease complexes by the compounds of the present invention. This assay provides an indication of how effective compounds of the present invention would be in inhibiting HCV NS3/4A proteolytic activity.
The inhibition of full-length hepatitis C NS3 protease enzyme was measured essentially as described in Poliakov, 2002 Prot Expression & Purification 25 363 371. Briefly, the hydrolysis of a depsipeptide substrate, Ac-DED(Edans)EEAbuψ[COO]ASK(Dabcyl)-NH2 (AnaSpec, San José, USA), was measured spectrofluorometrically in the presence of a peptide cofactor, KKGSVVIVGRIVLSGK (Åke Engström, Department of Medical Biochemistry and Microbiology, Uppsala University, Sweden). [Landro, 1997 #Biochem 36 9340-9348]. The enzyme (1 nM) was incubated in 50 mM HEPES, pH 7.5, 10 mM DTT, 40% glycerol, 0.1% n-octyl-D-glucoside, with 25 μM NS4A cofactor and inhibitor at 30° C. for 10 min, whereupon the reaction was initiated by addition of 0.5 μM substrate. Inhibitors were dissolved in DMSO, sonicated for 30 sec. and vortexed. The solutions were stored at −20° C. between measurements.
The final concentration of DMSO in the assay sample was adjusted to 3.3%. The rate of hydrolysis was corrected for inner filter effects according to published procedures. [Liu, 1999 Analytical Biochemistry 267 331-335]. Ki values were estimated by non-linear regression analysis (GraFit, Erithacus Software, Staines, MX, UK), using a model for competitive inhibition and a fixed value for Km (0.15 μM). A minimum of two replicates was performed for all measurements.

[2] = system: HCV replicons (Huh-7 luc/neo cells, NS3-NS5B regions of HCV type 1b); experiment: Replicon assay: inhibition of HCV RNA replication in Huh-Luc cells (luciferase read-out); format: cell-based; conditions: HCV type 1b replicon, luciferase activity after three days
Experimental: The in vitro antiviral activity against HCV of the compounds of formula (I) was tested in a cellular HCV replicon system based on Lohmann et al. (1999) Science 285:110-113, with the further modifications described by Krieger et al. (2001) Journal of Virology 75: 4614-4624 (incorporated herein by reference), which is further exemplified in the examples section. This model, while not a complete infection model for HCV, is widely accepted as the most robust and efficient model of autonomous HCV RNA replication currently available. […] It will be appreciated that it is important to distinguish between compounds that specifically interfere with HCV functions from those that exert cytotoxic or cytostatic effects in the HCV replicon model, and as a consequence cause a decrease in HCV RNA or linked reporter enzyme concentration. Assays are known in the field for the evaluation of cellular cytotoxicity based for example on the activity of mitochondrial enzymes using fluorogenic redox dyes such as resazurin. Furthermore, cellular counter screens exist for the evaluation of non-selective inhibition of linked reporter gene activity, such as firefly luciferase. Appropriate cell types can be equipped by stable transfection with a luciferase reporter gene whose expression is dependent on a constitutively active gene promoter, and such cells can be used as a counter-screen to eliminate non-selective inhibitors.
The compounds of formula (I) were examined for activity in the inhibition of HCV RNA replication in a cellular assay. […] The cellular assay was based on a bicistronic expression construct, as described by Lohmann et al. (1999) Science vol. 285 pp. 110-113 with modifications described by Krieger et al. (2001) Journal of Virology 75: 4614-4624, in a multi-target screening strategy. In essence, the method was as follows.
The assay utilized the stably transfected cell line Huh-7 luc/neo (hereafter referred to as Huh-Luc). This cell line harbors an RNA encoding a bicistronic expression construct comprising the wild type NS3-NS5B regions of HCV type 1b translated from an Internal Ribosome Entry Site (IRES) from encephalomyocarditis virus (EMCV), preceded by a reporter portion (FfL-luciferase), and a selectable marker portion (neo^R, neomycine phosphotransferase). The construct is bordered by 5′ and 3′ NTRs (non-translated regions) from HCV type 1b. Continued culture of the replicon cells in the presence of G418 (neo^R) is dependent on the replication of the HCV RNA. The stably transfected replicon cells that express HCV RNA, which replicates autonomously and to high levels, encoding inter alia luciferase, are used for screening the antiviral compounds.
The replicon cells were plated in 384 well plates in the presence of the test and control compounds which were added in various concentrations. Following an incubation of three days, HCV replication was measured by assaying luciferase activity (using standard luciferase assay substrates and reagents and a Perkin Elmer ViewLux™ ultraHTS microplate imager). Replicon cells in the control cultures have high luciferase expression in the absence of any inhibitor. The inhibitory activity of the compound on luciferase activity was monitored on the Huh-Luc cells, enabling a dose-response curve for each test compound. EC50 values were then calculated, which value represents the amount of the compound required to decrease by 50% the level of detected luciferase activity, or more specifically, the ability of the genetically linked HCV replicon RNA to replicate.

full-length hepatitis C NS3 protease enzyme (HCV NS3/4A protease complexes), sequence (P27958 1027-1657, one chain of several): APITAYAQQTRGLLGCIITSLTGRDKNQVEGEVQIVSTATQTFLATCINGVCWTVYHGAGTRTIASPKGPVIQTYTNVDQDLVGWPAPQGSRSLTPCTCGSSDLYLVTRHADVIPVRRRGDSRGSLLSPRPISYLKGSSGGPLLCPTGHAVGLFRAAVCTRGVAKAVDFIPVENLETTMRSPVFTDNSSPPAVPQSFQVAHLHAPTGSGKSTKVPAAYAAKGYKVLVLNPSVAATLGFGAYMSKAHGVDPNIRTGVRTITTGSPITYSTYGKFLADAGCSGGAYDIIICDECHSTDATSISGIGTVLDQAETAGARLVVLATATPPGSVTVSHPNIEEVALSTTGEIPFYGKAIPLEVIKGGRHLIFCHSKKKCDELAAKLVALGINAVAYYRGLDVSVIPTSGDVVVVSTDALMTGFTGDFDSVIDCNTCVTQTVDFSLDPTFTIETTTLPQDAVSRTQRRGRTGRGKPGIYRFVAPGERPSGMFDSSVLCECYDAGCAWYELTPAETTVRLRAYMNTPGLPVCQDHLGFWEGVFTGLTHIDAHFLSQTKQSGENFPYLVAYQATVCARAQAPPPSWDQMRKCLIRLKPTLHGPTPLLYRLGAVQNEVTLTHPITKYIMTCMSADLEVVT

| Compound | Ki [1] [nM] | EC50 ([2]; Hepatitis C virus, Huh-7, 72 h) [nM] | EC50 [2] [nM] |
| --- | --- | --- | --- |
| CN1CCN(c2nc(O[C@@H]3C[C@H]4C(=O)N[C@]5(C(=O)NS(=O)(=O)C6CC6)C[C@H]5/C=C\CCCCN(C)C(=O)[C@@H]4C3)c3ccccc3n2)CC1 [Compound 34, Cyclopropanesulfonic acid {13-methyl-17-[2-(4-methyl-piperazin-1-yl)quinazolin-4-yloxy]-2,14-dioxo-3,13-diaza-tricyclo[13.3.0.0*4,6*]octadec-7-ene4-carbonyl}-amide] | 5 to 99.9 | 200 to 990 |  |
| COc1ccc2c(O[C@@H]3C[C@H]4C(=O)N[C@]5(C(=O)NS(=O)(=O)C6CC6)C[C@H]5/C=C\CCCCN(C)C(=O)[C@@H]4C3)nc(-c3cccc(F)c3)nc2c1C [Compound 160, Cyclopropanesulfonic acid {17-[2-(3-fluoro-phenyl)-7-methoxy-8-methyl-quinazolin-4-yloxy]-13-methyl-2,14-dioxo-3,13-diaza-tricyclo[13.3.0.0*4,6*]octadec-7-ene-4-carbonyl}-amide] | 0.1 to 4.9 | 0.5 to 199 |  |
| COc1ccc2c(O[C@@H]3C[C@H]4C(=O)N[C@]5(C(=O)NS(=O)(=O)C6CC6)C[C@H]5/C=C\CCCCN(C)C(=O)N4C3)nc(-c3cccc(F)c3)nc2c1C [Compound 165, Cyclopropanesulfonic acid {17-[2-(3-fluoro-phenyl)-7-methoxy-8-methyl-quinazolin-4-yloxy]-13-methyl-2,14-dioxo-3,13,15-triaza-tricyclo[13.3.0.0*4,6*]octadec-7-ene-4-carbonyl}-amide] | 0.1 to 4.9 | 0.5 to 199 |  |
| CN1CCCC/C=C\[C@@H]2C[C@@]2(C(=O)NS(=O)(=O)C2CC2)NC(=O)[C@@H]2C[C@@H](Oc3nc(N4CCCC4)nc4ccccc34)C[C@H]2C1=O [Compound 72, Cyclopropanesulfonic acid [13-methyl-2,14-dioxo-17-[2-pyrrolidin-1-yl)-quinazolin-4-yloxy]-3,13-diaza-tricyclo[13.3.0.0*4,6*]octadec-7-ene-4-carbonyl]-amide] | 0.1 to 4.9 | 200 to 990 |  |
| COc1cc2nc(-c3ccccc3)nc(O[C@@H]3C[C@H]4C(=O)N[C@]5(C(=O)NS(=O)(=O)C6CC6)C[C@H]5/C=C\CCCCN(C)C(=O)N4C3)c2cc1C [Compound 121, Cyclopropanesulfonic acid [17-(7-methoxy-6-methyl-2-phenyl-quinazolin-4-yloxy)-13-methyl-2,14-dioxo-3,13,15-triaza-tricyclo[13.3.0.0*4,6*]octadec-7-ene-4-carbonyl]-amide] | 0.1 to 4.9 | 0.5 to 199 |  |
| COc1ccc2c(O[C@@H]3C[C@H]4C(=O)N[C@]5(C(=O)NS(=O)(=O)C6CC6)C[C@H]5/C=C\CCCCCNC(=O)N4C3)nc(-c3ccc(F)cc3)nc2c1C [Compound 104, Cyclopropanesulfonic acid {18-[2-(4-fluoro-phenyl)-7-methoxy-8-methyl-quinazolin-4-yloxy]-2,15-dioxo-3,14,16-triaza-tricyclo[14.3.0.0*4,6*]nonadec-7-ene-4-carbonyl}-amide] | 0.1 to 4.9 | 0.5 to 199 |  |
| COc1ccc2c(O[C@@H]3C[C@H]4C(=O)N[C@]5(C(=O)NS(=O)(=O)C6CC6)C[C@H]5/C=C\CCCCN(C)C(=O)[C@@H]4C3)nc(-c3cc(F)cc(F)c3)nc2c1C [Compound 170, Cyclopropanesulfonic acid {17-[2-(3,5-difluoro-phenyl)-7-methoxy-8-methyl-quinazolin-4-yloxy]-13-methyl-2,14-dioxo-3,13-diaza-tricyclo[13.3.0.0*4,6*]octadec-7-ene-4-carbonyl}-amide] | 5 to 99.9 | 0.5 to 199 |  |
| COc1ccc2c(O[C@@H]3C[C@H]4C(=O)N[C@]5(C(=O)NS(=O)(=O)C6CC6)C[C@H]5/C=C\CCCCN(C)C(=O)N4C3)nc(-c3ccccc3)nc2c1 [Compound 53, Cyclopropanesulfonic acid [17-(7-methoxy-2-phenyl-quinazolin-4-yloxy)-13-methyl-2,14-dioxo-3,13,15-triaza-tricyclo[13.3.0.0*4,6*]octadec-7-ene-4-carbonyl]-amide] | 0.1 to 4.9 | 0.5 to 199 |  |
| Cyclopropanesulfonic acid {13-methyl-2,14-dioxo-17-[2-(5H-pyrazol-1-yl)-quinazolin-4-yloxy]-3,13-diaza-tricyclo[13.3.0.0*4,6*]octadec-7-ene-4-carbonyl-amide [Compound 70] | > 1000 |  | > 10000 |
| CCOc1nc(O[C@@H]2C[C@H]3C(=O)N[C@]4(C(=O)NS(=O)(=O)C5CC5)C[C@H]4/C=C\CCCCN(C)C(=O)[C@@H]3C2)c2ccc(OC)c(C)c2n1 [Compound 150, N-[17-[2-Ethoxy-7-methoxy-8-methylquinazolin-4-yloxy]-13-methyl-2,14-dioxo-3,13-diazatricyclo[13.3.0.0^4,6]octadec-7-ene-4-carbonyl](cyclopropyl)sulfonamide] | 0.1 to 4.9 | 0.5 to 199 |  |
| COc1ccc2c(O[C@@H]3C[C@H]4C(=O)N[C@]5(C(=O)NS(=O)(=O)C6(C)CC6)C[C@H]5/C=C\CCCCCNC(=O)N4C3)nc(-c3ccccc3)nc2c1C [Compound 176, 1-Methyl-cyclopropanesulfonic acid [18-(7-methoxy-8-methyl-2-phenyl-quinazolin-4-yloxy)-2,15-dioxo-3,14,16-triaza-tricyclo[14.3.0.0*4,6*]nonadec-7-ene-4-carboyl]-amide] | 0.1 to 4.9 | 0.5 to 199 |  |
| COc1ccc(-c2nc(O[C@@H]3C[C@H]4C(=O)N[C@]5(C(=O)NS(=O)(=O)C6CC6)C[C@H]5/C=C\CCCCN(C)C(=O)N4C3)c3ccc(OC)c(C)c3n2)cc1 [Compound 131, Cyclopropanesulfonic acid {17-[7-methoxy-2-(4-methoxy-phenyl)-8-methyl-quinazolin-4-yloxy]-13-methyl-2,14-dioxo-3,13,15-triaza-tricyclo[13.3.0.0*4,6*]-octadec-7-ene-4-carbonyl}-amide] | 0.1 to 4.9 | 0.5 to 199 |  |
| CN1CCCC/C=C\[C@@H]2C[C@@]2(C(=O)NS(=O)(=O)C2CC2)NC(=O)[C@@H]2C[C@@H](Oc3nc(-c4ccccc4)nc4ccccc34)C[C@H]2C1=O [Compound 31, Cyclopropanesulfonic acid [13-methyl-2,14-dioxo-17-(2-phenylquinazolin-4-yl-oxy)3,13-diaza-tricyclo[13.3.0.0*4,6*]octadec-7-ene-4-carbonyl]amide] | 0.1 to 4.9 | 0.5 to 199 |  |
| COc1ccc2c(O[C@H]3CC4C(=O)N(C)CCCC/C=C\[C@@H]5C[C@@]5(C(=O)NS(=O)(=O)C5CC5)NC(=O)[C@@H]4C3)nc(-c3ccc(F)cc3)nc2c1C (stereo partly shown) [Compound 154] | 0.1 to 4.9 | 0.5 to 199 |  |

From patent publication US7659245B2, “Macrocylic inhibitors of hepatitis C virus” (Tibotec Pharmaceuticals Ltd, priority 2005, dated 2010)
